Patent US20250368958A1, “CAR-EXPRESSING PLURIPOTENT STEM CELL-DERIVED NEUTROPHILS LOADED WITH DRUG NANOPARTICLES AND USES THEREOF” (Purdue Research Foundation, priority 2022, published 2025)

Tests used:
U87MG tumor spheroids = test: 3D tumor spheroid model; assay type: cell-based, human; conditions: drug delivered by CAR-neutrophils@R—SiO2 NPs
Experimental: A three-dimensional (3D) tumor spheroid model was then employed to evaluate the tumor-penetration ability of R—SiO2-TPZ NP-loaded CAR-neutrophils (FIG. 6G). 3D tumor spheroids were generated by the hanging-drop method. Briefly, U87MG cells were suspended in minimum essential medium (MEM) medium with 10% FBS and 0.3% methylcellulose at 2×10^6 cells/mL and deposited onto an inverted lid of 96-well plate as an individual drop using a 20 μL pipettor. The cover lid was then placed back onto the PBS-filled bottom chamber, and the whole plate was incubated at 37° C. and 5% CO2. The hanging drops were monitored daily until cell aggregates were formed in 5-7 days. Each cell aggregate was transferred to a single well of a 24-well plate for subsequent experiments.
To assess the tumor penetration capability of CLTX-CAR neutrophils, 2×10^5 neutrophils/well were added to the wells of 24-well plate and incubated with tumor spheroids. After co-incubation for 24 hours, tumor spheroids were fixed and stained for CD45 and DAPI. For cytotoxicity analysis, both live/dead cell staining and the CytoTox-Glo™ Cytotoxicity Assay kit (Promega Corporation, Madison, WI) were employed. The CytoTox-Glo™ Cytotoxicity Assay was quantified by the SpectraMax iD3 microplate reader (Molecular Devices, Sunnyvale, CA).

[1] = system: tumor-neutrophil co-culture; test: Tumor lysis with phagocytosis or ROS inhibitor; assay type: cell-based
Experimental: FIG. 16A is a volcano map of bulk RNA-Seq analysis of U87MG cells under indicated treatments. FIGS. 16B and 16C show tumor lysis measurements of the indicated groups treated with 5 μM cytochalasin D (CytoD) or 5 mM N-acetylcysteine (NAC), respectively.
RNA sequencing (RNA-seq) analysis on tumor cells was performed to elucidate potential molecular mechanism underlying enhanced anti-tumor cytolysis of neutrophils by CAR expression and R—SiO2-TPZ NP. […] To further understand enhanced anti-tumor activities of R—SiO2-TPZ-loaded CAR-neutrophils, a phagocytosis inhibitor cytochalasin D and a reactive oxygen species (ROS) inhibitor N-acetyl-cysteine (NAC) were applied to the tumor-neutrophil co-culture.

Nc1nc2cc(CC[C@H]3C[C@@H](n4ccc5c(N)ncnc54)[C@H](O)[C@@H]3O)ccc2cc1Br [JNJ64619187]
killing of GBM cells in 3D tumor models (U87MG tumor spheroids): efficiently kill GBM cells

CC(=O)N[C@@H](CS)C(=O)O [NAC, N-acetyl-cysteine]
cytolysis of tumor cells by CAR-neutrophils in presence of inhibitor ([1]; 5 mM): significantly reduced

C=C1[C@@H](C)[C@H]2[C@H](Cc3ccccc3)NC(=O)[C@]23[C@H](OC(C)=O)/C=C/[C@@](C)(O)C(=O)[C@@H](C)C/C=C/[C@H]3[C@@H]1O [cytochalasin D]
cytolysis of tumor cells by CAR-neutrophils in presence of inhibitor ([1]; 5 μM): significantly reduced
